This is an account of results in US20230285365A1, “USE OF A DHODH INHIBITOR COMPOUND IN COMBINATION CANCER THERAPY” (Servier Pharmaceuticals LLC, priority 2020, published 2023).

The subject of this test is mouse lymphoma models (DLBCL, MCL, Burkitt lymphoma, Hodgkin lymphoma, undifferentiated lymphoma). The test is described as follows: Growth inhibition study in tumor-bearing mice, various mouse lymphoma models. Format: in vivo. The following applies: doses as in treatment table (Compound 1 100 mg/kg BID, rituximab 20 mg/kg BIW, CHOP), FIGS. 1-3. The source says:
See e.g., FIGS. 1-3, which show complete regression of certain diffuse large B-cell lymphoma (DLBCL), mantle cell lymphoma (MCL), Burkitt lymphoma, Hodgkin lymphoma, and undifferentiated lymphoma mouse models following treatment with Compound 1 and R-CHOP.
Growth Inhibition Study of Compound 1 with R-CHOP in Tumor-Bearing Mice.
Mice were implanted subcutaneously with 5×10^6 to 2×10^7 cells as required for each model. Tumor volumes were monitored twice a week until tumors reach approximately 150 mm^3. Once tumor burden was at this level, mice were randomized and treated with the following.
At the study end, tumor tissue, and plasma were collected 1 hr. post final dose of Compound 1. Treatment was well tolerated. FIGS. 1-3 show the percent change in tumor volume for the mouse models treated. […] A similar result was observed across the multiple subsets of lymphoma tested.

As to rituximab, the “tumor response (percent change in tumor volume)” value was “tumor growth continued”.
